# Measurements reported in patent publication US20040022789A1, “Methods and compositions for treating T cell mediated inflammatory/autoimmune diseases and disorders in subjects having a glucocorticoid regulation deficiency” (The Washington University, priority 2002, published 2004).
# Experiments:
# Type in all cases: in vivo
# control mice = assay: Mortality after anti-CD3ε antibody in control mice pre-treated with mifepristone (GR antagonist)
# Description: (§1) Animal husbandry and plasma sampling: Mice were housed on a 12 h/12 h light/dark cycle with ad libitum access to rodent chow. Blood for measurement of corticosterone and cytokines was obtained by rapid retroorbital phlebotomy into heparinized capillary tubes with a total time from first handling the animal to completion of bleeding not exceeding 30 s. Plasma was separated by centrifugation and stored at −80° C. until assay. Unless otherwise noted, all mice used were 6-10 weeks old and of a C57BL/6×129/Sv genetic background.
# (§2) Pharmacologic and antibody treatment: Mice were injected intraperitoneally 100 μg anti-CD3p antibody (145-2C11) diluted in 250 μl PBS. Dexamethasone-treated mice were injected intraperitoneally with 200 μg dexamethasone phosphate just prior to and eight hours after anti-CD3ε antibody challenge. Neutralizing anti-IFNγ antibody (H22, 50 μg) was injected intraperitoneally one day before anti-CD3ε antibody administration as described previously. See, e.g., Ferran, C. et al., Eur. J. Immunol, 21:2349-2353 (1991). Mifepristone (RU 486, Sigma) was dissolved in 100% ethanol (50 mg/ml). Mifepristone-treated mice were given 0.5 mg (diluted in sesame oil) s.c. the night before and one hour prior to inflammatory challenge. […]
# TGRko mice = assay: Mortality of TGRko mice after polyclonal T cell activation with anti-CD3ε antibody; conditions: 100 μg anti-CD3ε antibody i.p., treatment before (and after) challenge
# Description: as §1
# Generation of TGRko mice: To build a TGRko targeting vector (pGRloxPneo), a loxP site was inserted into the unique Sac I site in the GR gene region upstream of exon 2 between exons 1B and 1C. A PGKneo (gene encoding for resistance to neomycin) cassette was then subcloned containing flanking loxP sites into intron 2 of the GR gene using oligonucleotide linkers. To obtain ES clones having replaced one copy of the endogenous murine GR locus with the GRloxPneo allele, TC1 ES cells were electroporated in the presence of linearized pGRloxPneo as has previously been described (See, e.g., Muglia, L. J. et al., J. Clin. Invest., 93:2066-2072 (1994)). DNA from 87 G418 resistant embryonic stem cell (ES) clones was analyzed by Southern blot, employing a probe external to the flanking regions within our targeting vector. […]
# [1] = system: adrenalectomized control mice; assay: Mortality after anti-CD3ε antibody in adrenalectomized control mice
# Description: Adrenalectomy: Mice were adrenalectomized as previously described and rested one week before being subjected to experimentation. See, e.g., Muglia, L. J. et al, J. Clin. Invest., 105:1269-1277 (2000).
# Pharmacologic and antibody treatment: Mice were injected intraperitoneally 100 μg anti-CD3p antibody (145-2C11) diluted in 250 μl PBS. Dexamethasone-treated mice were injected intraperitoneally with 200 μg dexamethasone phosphate just prior to and eight hours after anti-CD3ε antibody challenge. Neutralizing anti-IFNγ antibody (H22, 50 μg) was injected intraperitoneally one day before anti-CD3ε antibody administration as described previously. See, e.g., Ferran, C. et al., Eur. J. Immunol, 21:2349-2353 (1991). Mifepristone (RU 486, Sigma) was dissolved in 100% ethanol (50 mg/ml). Mifepristone-treated mice were given 0.5 mg (diluted in sesame oil) s.c. the night before and one hour prior to inflammatory challenge. Cox-2 selective inhibitor-treated mice were given 300 μg of either SC-236 or NS-398 suspended in PBS/1% Tween-80 or vehicle twice a day for two days by oral gavage as previously described by Gross, G. et al, Am J. Physiol. Regul. Integr. Comp. Physiol., 278:R^1415-R^1423 (2000).
# IL-2 = assay: Plasma IL-2 after anti-CD3ε antibody (ELISA); conditions: TGRko mice; dexamethasone 200 μg before and 8 hours after anti-CD3ε antibody
# Description: as §1
# Cytokine Measurements: Plasma cytokines were measured according to manufacturer's instructions (Pharmingen).
# as §2
smiles,measurement,setting,value
NS(=O)(=O)c1ccc(-n2nc(C(F)(F)F)cc2-c2ccc(Cl)cc2)cc1 [SC-236],protection from mortality,control mice; control mice treated with mifepristone+SC-236 (m/s) compared to vehicle-treated counterparts,significantly protected
same,mortality / lethality after anti-CD3ε antibody administration,TGRko mice,Protection from lethality
same,mice died within eight hours of anti-CD3ε antibody treatment,"[1]; ADX+SC-236 (ADX+vehicle 4/5, Sham operated+vehicle 0/3)",2/6
same,rescue from mortality,"[1]; adrenalectomized control mice, shorter timescale",essentially the same degree of rescue
C[C@@H]1C[C@H]2[C@@H]3CCC4=CC(=O)C=C[C@]4(C)[C@@]3(F)[C@@H](O)C[C@]2(C)[C@@]1(O)C(=O)CO [dexamethasone],plasma IL-2,IL-2,no significant effect
CC#C[C@]1(O)CC[C@H]2[C@@H]3CCC4=CC(=O)CCC4=C3[C@@H](c3ccc(N(C)C)cc3)C[C@@]21C [mifepristone],susceptibility to the lethal effects of T cell activation,"control mice; control mice, mifepristone+vehicle (m/v) compared to vehicle controls (v/v)",significantly more susceptible
